Measured values published in patent US10780074B2, “Compounds and uses thereof” (Sunovion Pharmaceuticals Inc., priority 2017, dated 2020).
Structures can show the parent of a compound that is named as a salt.

Legend:
[1] = tested on: behaviors of compound-treated mice; test: Neuropharmacological Assay (SmartCube); format: in vivo; details: for minimal effective dose: Mus musculus, ip, 0.25 h, dose having 50% or more total activity in SmartCube, i.p., read-out: MED (minimal effective dose); for AD: ADHD (probability that activity matches class) / AG: analgesic (probability that activity matches class) / AX: anxiolytic (probability that activity matches class) / CE: cognitive enhancer (probability that activity matches class) / DP: anti-depressant (probability that activity matches class) / MS: mood stabilizer (probability that activity matches class) / PS: anti-psychotic (probability that activity matches class) / SD: sedative hypnotic (probability that activity matches class) / UN: uncharacterized CNS activity (probability that activity matches class): i.p. 15 min before behavioral test, most efficacious dose(s) of 3 doses
How it was run: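 Behavioral signatures were captured automatically by video, and each drug class received a probability for the best of three i.p. doses given 15 min pre-test (vehicle: Pharmasolve/PEG/propylene glycol). Potency is given as MED, the lowest mpk dose (typically 0.3–30) reaching 50% or more total activity.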

MES-induced seizures = test: Mouse Maximum Electroshock Assay (MES); format: in vivo; details: male CF-1 mice, fewer than 4 animals tested, given as N/F
From the text: Mouse Maximum Electroshock Assay (MES)
Mouse Maximum Electroshock Assay (MES) is a model for generalized tonic-clonic seizures and provides an indication of a compound's ability to prevent seizure spread when all neuronal circuits in the brain are maximally active. These seizures are highly reproducible and are electrophysiologically consistent with human seizures. For all MES tests, 60 Hz of alternating current (50 mA in mice and 150 mA in rats) was delivered for 0.2 sec by corneal electrodes which had been primed with an electrolyte solution containing an anesthetic agent (0.5% tetracaine HCl). An animal was considered “protected” from MES-induced seizures upon abolition of the hindlimb tonic extensor component of the seizure. Initial screen for anticonvulsant activity in the MES was performed with N=4 male CF-1 mice/dose/time point. The default doses and time-points were 3 and 30 mg/kg at 0.25 and 0.5 hr following administration. Quantification of the ED50 was conducted at the time of peak effect (TPE). To determine the TPE, groups of N=4 mice were treated with the investigational compound at 0.25, 0.5, 1.0, 2.0 and 4.0 hrs prior to MES testing, or based on time-points from prior studies. […] Quantitation of the ED50 was conducted the same as described for mice above.

Row | Compound | minimal effective dose [1] [mg/kg] | AD: ADHD (probability that activity matches class) [1] | AG: analgesic (probability that activity matches class) [1] | AX: anxiolytic (probability that activity matches class) [1] | CE: cognitive enhancer (probability that activity matches class) [1] | DP: anti-depressant (probability that activity matches class) [1] | MS: mood stabilizer (probability that activity matches class) [1] | PS: anti-psychotic (probability that activity matches class) [1] | SD: sedative hypnotic (probability that activity matches class) [1] | UN: uncharacterized CNS activity (probability that activity matches class) [1] | Seizure protection at 30 mg/kg (animals protected/animals tested) (MES-induced seizures)
1 | CNC[C@H]1OCCc2c(-c3cnccn3)cccc21 (single isomer, unassigned) [Compound 81] | ≤ 3 | ++ (5% ≤ ++ <25%) | + (LOQ ≤ + <5%) | ++ (5% ≤ ++ <25%) | + (LOQ ≤ + <5%) | ++++ (50% ≤ ++++) | + (LOQ ≤ + <5%) | + (LOQ ≤ + <5%) | + (LOQ ≤ + <5%) | +++ (25% ≤ +++ <50%) | 3/3 animals tested
2 | CNC[C@@H]1OCCc2c(-c3cnco3)cccc21 (single isomer, unassigned) [Compound 96, hydrochloride salt] | ≤ 3 | ++ (5% ≤ ++ <25%) | + (LOQ ≤ + <5%) | +++ (25% ≤ +++ <50%) | + (LOQ ≤ + <5%) | ++++ (50% ≤ ++++) | + (LOQ ≤ + <5%) | + (LOQ ≤ + <5%) | ++++ (50% ≤ ++++) | + (LOQ ≤ + <5%) | 2/2 animals tested
3 | CNC[C@@H]1OCCc2c(-c3cocn3)cccc21 [Compound 102, (R)—N-methyl-1-(5-(oxazol-4-yl)isochroman-1-yl)methanamine HCl salt] | 10 to 30 | + (LOQ ≤ + <5%) | + (LOQ ≤ + <5%) | ++ (5% ≤ ++ <25%) | + (LOQ ≤ + <5%) | + (LOQ ≤ + <5%) | + (LOQ ≤ + <5%) | + (LOQ ≤ + <5%) | + (LOQ ≤ + <5%) | + (LOQ ≤ + <5%) | 
4 | NC[C@H]1OCCc2c(-c3cn[nH]c3)cccc21 [Compound 117, (S)-(5-(1H-pyrazol-4-yl)isochroman-1-yl)methanamine hydrochloride salt] | 3 to 10 | + (LOQ ≤ + <5%) | + (LOQ ≤ + <5%) | ++ (5% ≤ ++ <25%) | + (LOQ ≤ + <5%) | ++ (5% ≤ ++ <25%) | + (LOQ ≤ + <5%) | ++ (5% ≤ ++ <25%) | ++ (5% ≤ ++ <25%) | ++ (5% ≤ ++ <25%) | 
